Consider two compounds from US20050118290A1, “Compositions and method for treatment of steroid/nuclear receptor-mediated diseases” (University of Singapore, priority 2003, published 2005).

Holding throughout (type): cell-based
In one experiment the target is T1, PPARα (Homo sapiens, UniProt Q07869).
T1 construct: expressed in transfected cells; host or cells: HeLa
T1 sequence (Q07869 239-466 limits assumed): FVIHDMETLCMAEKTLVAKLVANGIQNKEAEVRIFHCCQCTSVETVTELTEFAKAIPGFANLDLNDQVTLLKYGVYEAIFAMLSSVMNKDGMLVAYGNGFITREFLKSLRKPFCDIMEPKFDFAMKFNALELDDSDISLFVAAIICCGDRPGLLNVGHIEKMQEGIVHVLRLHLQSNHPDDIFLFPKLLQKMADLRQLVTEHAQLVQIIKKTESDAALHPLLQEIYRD
Description: Chimeric Gal4DBD-PPARαLBD receptor / UASg-luciferase reporter gene assay in HeLa cells. An excerpt: In an example of such a reporter gene assay, a plasmid containing chimeric Ga14DBD-PPARLBD receptor cDNA was constructed by excising the ligand binding domain (LBD) of full length PPARγ and PPARα and ligating the resulting fragments in frame to the Ga14-DNA binding domain (DBD) of Saccharomyces cerevisiae in a pM vector (Clontech). Specifically, to construct Ga14DBD-PPARγLBD plasmid, pSG5 expression vector (Stratagene) containing full length PPARγ was excised with Rsa I and blunt ligated to Hind III site of pMGa14DBD expression plasmid (Clontech). To construct Ga14DBD-PPARαLBD plasmid, pSG5 expression vector (Stratagene) containing full length PPARα was excised with BstU I and BamH I and blunt-end ligated in frame to BamH I site of pMGa14DBD expression plasmid (Clontech). […] Ga14 DBD binds very strongly to the exogenous UASg promoter, thereby giving rise to a sensitive and specific assay. To measure PPARγ and PPARα agonist activity, HeLa cells were grown in 24-well microtiter plates and then transiently co-transfected with the two plasmids (chimeric PPAR receptor and UASg reporter gene) using Lipofectamine (Invitrogen). […] Concurrently, cells exposed to known PPAR ligands served as positive controls. Replicate wells, exposed to the vehicle solvent (i.e., ethanol or methanol) in which herbal extracts were dissolved, were used as negative controls. After the 40 hr incubation period, cells were rinsed with phosphate buffered saline (PBS), lysis buffer was added, and cell lysates were collected for measurement of luciferase activity using a luminometer. […] All data points are in triplicate. The data points represent the mean of triplicate wells. Luciferase activity in such an assay accurately reflects the activity of any ligands on PPARγ or PPARα.

The target of experiment [1] is T2, human estrogen receptor ERα (Homo sapiens, UniProt P03372).
T2 construct: expressed in transfected cells; host or cells: HeLa
T2 sequence (P03372 1-595): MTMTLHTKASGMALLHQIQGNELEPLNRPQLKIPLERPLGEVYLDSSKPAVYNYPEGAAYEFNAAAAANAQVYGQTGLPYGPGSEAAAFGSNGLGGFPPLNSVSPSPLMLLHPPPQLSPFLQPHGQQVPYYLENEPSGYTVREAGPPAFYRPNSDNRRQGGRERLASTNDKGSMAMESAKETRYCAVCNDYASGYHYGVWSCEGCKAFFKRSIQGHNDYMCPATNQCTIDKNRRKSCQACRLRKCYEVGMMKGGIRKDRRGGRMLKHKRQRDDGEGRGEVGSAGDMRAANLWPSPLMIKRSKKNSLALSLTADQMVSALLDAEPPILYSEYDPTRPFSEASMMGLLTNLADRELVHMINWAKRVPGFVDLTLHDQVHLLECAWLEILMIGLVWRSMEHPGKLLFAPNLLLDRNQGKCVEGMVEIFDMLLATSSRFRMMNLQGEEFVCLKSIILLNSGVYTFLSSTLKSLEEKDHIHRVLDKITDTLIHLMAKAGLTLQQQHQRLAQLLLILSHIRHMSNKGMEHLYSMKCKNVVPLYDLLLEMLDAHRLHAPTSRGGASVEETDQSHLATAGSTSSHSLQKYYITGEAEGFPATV
Description: ERα MMTV-ERE-LUC reporter gene assay in HeLa cells. The protocol: (§1) ERα and ERβ activity were assayed using plasmids encoding either ERα or ERβ co-transfected with the ERE-LUC reporter gene. To assay estrogen receptor agonist activity, HeLa cells were transiently co-transfected with two plasmids (Tcherepanova, et al., 2000) using Lipofectamine. The first plasmid comprised DNA encoding human estrogen receptor (either ERα or ERβ), and the second plasmid comprised an estrogen-driven reporter system comprising: a luciferase reporter gene (LUC) whose transcription is under the control of upstream regulatory elements comprising 4 copies of the vitellogenin estrogen response element (ERE) cloned into the Mouse Mammary Tumor Virus (MMTV) promoter (the full name of the reporter system being ‘MMTV-ERE-LUC’).
(§2) AR, PR, GR and ERα and […] were determined by comparing luciferase activity in test cells with control cells exposed to vehicle (i.e., ethanol or methanol) only, analogous to the determination of PPAR activity as described in the previous examples.
On the technique in general: A reporter such as luciferase makes a cellular process visible.

In experiment [2] the target is T3, human estrogen receptor ERβ (Homo sapiens, UniProt Q92731).
T3 construct: expressed in transfected cells; host or cells: HeLa
The experiment can be described thus: ERβ MMTV-ERE-LUC reporter gene assay in HeLa cells. The conditions noted are these: for ERβ activity comparable to % maximal activity of Estradiol / maximal fold increase in ERβ activity: 30×10^−6 g/ml. The protocol: as §1, §2

T3 sequence (Q92731 whole entry): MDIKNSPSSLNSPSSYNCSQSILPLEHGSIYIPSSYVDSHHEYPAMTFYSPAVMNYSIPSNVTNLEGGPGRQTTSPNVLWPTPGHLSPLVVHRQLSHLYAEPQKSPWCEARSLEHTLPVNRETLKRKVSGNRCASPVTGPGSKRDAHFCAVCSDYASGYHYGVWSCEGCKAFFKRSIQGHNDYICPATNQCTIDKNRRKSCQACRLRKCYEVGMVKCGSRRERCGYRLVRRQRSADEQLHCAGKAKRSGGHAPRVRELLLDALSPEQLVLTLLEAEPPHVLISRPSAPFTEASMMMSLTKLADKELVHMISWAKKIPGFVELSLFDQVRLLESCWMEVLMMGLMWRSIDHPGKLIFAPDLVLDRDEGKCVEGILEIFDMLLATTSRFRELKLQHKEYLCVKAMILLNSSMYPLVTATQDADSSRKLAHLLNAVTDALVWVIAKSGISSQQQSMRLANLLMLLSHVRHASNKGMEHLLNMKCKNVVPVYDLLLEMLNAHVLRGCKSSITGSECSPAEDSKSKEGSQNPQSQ

As to `COc1ccc(-c2coc3cc(O)ccc3c2=O)cc1O` [calycosin, 3′,7-Dihydroxy-4′-methoxyisoflavone], the figures for the “Luciferase activity (Fold over vehicle ± SE) PPARα/WY14643 (30 × 10^−6M)” value on PPARα (calycosin 3 ×10^−6 g/mL), at PPARα (calycosin 10 ×10^−6 g/mL) and on PPARα (calycosin 30 ×10^−6 g/mL) were 197 ± 20.6 Fold, 257 ± 8.85 Fold and 294 ± 39.2 Fold, respectively. In addition, on PPARα (with WY14643 30×10^−6M), the “increase of the activity of maximal doses of PPARα agonist” value worked out at 1.8 fold. Also, in experiment [1] (30×10^−6 g/ml), the “ERα activity comparable to % maximal activity of Estradiol” value is listed as around 50%. The “maximal fold increase in ERα activity” value in experiment [1] (30×10^−6 g/ml) amounted to 20 fold. The “Luciferase activity (Fold over vehicle ± SE) ERα/Estradiol (1 × 10^−9M)” value in experiment [1] (calycosin 3 ×10^−6 g/mL) came to 118 ± 2.18 Fold; in experiment [1] (calycosin 10 ×10^−6 g/mL), 127 ± 6.3 Fold; in experiment [1] (calycosin 30 ×10^−6 g/mL) it was 114 ± 4.18 Fold. Also, in experiment [1] (with estradiol 1×10^−9M), the “increase of the activity of maximal doses of estradiol on ERα” value is recorded as 2.9 fold. Besides, in experiment [2] (1 to 30×10^−6 g/mL + estradiol 1×10^−9M), the “effect on ERβ activity of estradiol” value is recorded as “additive”. For the same compound, the “ERβ activity comparable to % maximal activity of Estradiol” value in experiment [2] is given as around 400%. Also, the “maximal fold increase in ERβ activity” value in experiment [2] came out at 100 fold. Moreover, the “Luciferase activity (Fold over vehicle ± SE) ERβ/Estradiol (1 × 10^−9M)” value in experiment [2] (calycosin 3 ×10^−6 g/mL) is given as 55.2 ± 1.21 Fold; in experiment [2] (calycosin 10 ×10^−6 g/mL), 65.1 ± 2.71 Fold; in experiment [2] (calycosin 30 ×10^−6 g/mL), 70.7 ± 3.61 Fold.

In the case of `O=c1c(-c2ccc(O)cc2)coc2cc(O)ccc12` [daidzein], on PPARα (10×10^−6 g/ml), the “PPARα activity comparable to % maximal activity of W14643” value was around 73% and the “maximal fold PPARα activity” value is given as 8 fold. In addition, the “Luciferase activity (Fold over vehicle ± SE) PPARα/WY14643 (30 × 10^−6M)” value at PPARα (daidzein 5 ×10^−6 g/mL) worked out at 58.2 ± 14.9 Fold. The “Luciferase activity (Fold over vehicle ± SE) PPARα/WY14643 (30 × 10^−6M)” value at PPARα (daidzein 10 ×10^−6 g/mL) turned out to be 71.3 ± 9.90 Fold. For the same compound, the “Luciferase activity (Fold over vehicle ± SE) PPARα/WY14643 (30 × 10^−6M)” value at PPARα (daidzein 20 ×10^−6 g/mL) came out at 53.4 ± 13.3 Fold. For the same compound, in experiment [1] (5×10^−6 g/ml), the “ERα activity comparable to % maximal activity of Estradiol” value was around 100% and the “maximal fold increase in ERα activity” value is reported as 20 fold. Moreover, in experiment [2], the “ERβ activity comparable to % maximal activity of Estradiol” value is around 200% and the “maximal fold increase in ERβ activity” value was found to be 29 fold.
